Test results reported in ChEMBL document CHEMBL1136520, “Advances toward new antidepressants beyond SSRIs: 1-aryloxy-3-piperidinylpropan-2-ols with dual 5-HT1A receptor antagonism/SSRI activities. Part 1” (Bioorg Med Chem Lett, 2003).
pKi: −log10 of the molar value.

Tests used:
[1] = target: T1, 5-hydroxytryptamine receptor 1A (Homo sapiens) (UniProt P08908); assay: Maximal response as a result of 5-hydroxytryptamine 1A receptor-mediated stimulation of [35S]GTP-gamma-S, binding; format: functional
T1 sequence (whole entry): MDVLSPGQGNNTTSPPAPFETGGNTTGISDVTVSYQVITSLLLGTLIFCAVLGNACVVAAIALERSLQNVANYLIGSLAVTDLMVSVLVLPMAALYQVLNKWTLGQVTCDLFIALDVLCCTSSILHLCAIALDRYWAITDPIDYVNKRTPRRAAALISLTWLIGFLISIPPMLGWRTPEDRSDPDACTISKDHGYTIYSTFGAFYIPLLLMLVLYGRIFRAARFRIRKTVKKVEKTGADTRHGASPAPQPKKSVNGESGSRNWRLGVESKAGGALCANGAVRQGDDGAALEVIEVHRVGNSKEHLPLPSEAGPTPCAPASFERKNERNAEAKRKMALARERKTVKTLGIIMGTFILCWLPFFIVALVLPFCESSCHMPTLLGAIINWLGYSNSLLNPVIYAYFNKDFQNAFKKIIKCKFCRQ

[2] = target: T2, Sodium-dependent serotonin transporter (Rattus norvegicus, UniProt P31652); assay: Binding affinity towards serotonin [5-HT] reuptake site labeled with [3H]paroxetine as radioligand
T2 sequence (P31652 whole entry): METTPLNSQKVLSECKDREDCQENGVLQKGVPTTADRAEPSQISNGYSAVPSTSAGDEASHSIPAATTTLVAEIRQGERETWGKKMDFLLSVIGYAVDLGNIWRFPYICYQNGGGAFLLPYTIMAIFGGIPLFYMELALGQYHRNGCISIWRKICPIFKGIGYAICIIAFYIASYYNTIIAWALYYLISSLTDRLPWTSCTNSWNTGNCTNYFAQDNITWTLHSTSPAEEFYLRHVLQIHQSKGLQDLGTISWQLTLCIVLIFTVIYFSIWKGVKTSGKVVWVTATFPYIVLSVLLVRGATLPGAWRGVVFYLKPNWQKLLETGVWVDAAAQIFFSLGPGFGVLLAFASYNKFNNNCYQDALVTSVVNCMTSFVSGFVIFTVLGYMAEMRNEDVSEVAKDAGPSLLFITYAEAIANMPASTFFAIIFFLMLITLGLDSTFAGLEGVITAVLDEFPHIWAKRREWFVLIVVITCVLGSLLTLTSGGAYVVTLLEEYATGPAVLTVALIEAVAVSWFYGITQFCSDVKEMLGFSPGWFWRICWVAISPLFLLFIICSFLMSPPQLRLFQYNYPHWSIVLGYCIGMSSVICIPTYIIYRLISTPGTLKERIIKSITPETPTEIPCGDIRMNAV

[3] = target: T3, 5-hydroxytryptamine receptor 1A (Homo sapiens, UniProt P08908); assay: Binding affinity was determined towards 5-hydroxytryptamine 1A receptor using [3H]8-OH-DPAT as radioligand
T3 sequence (P08908 whole entry): T1 sequence (whole entry)

[4] = target: Sodium-dependent serotonin transporter (Rattus norvegicus) (UniProt P31652); assay: Inhibitory activity against serotonin [5-HT] reuptake site labeled with [3H]-paroxetine as radioligand at 100 nM concentration
Sequence of Sodium-dependent serotonin transporter (Rattus norvegicus) (P31652 whole entry): as above

[5] = target: T1, 5-hydroxytryptamine receptor 1A (Homo sapiens); assay: Maximal response as a result of 5-HT1A receptor-mediated stimulation of [35S]GTP-gamma-S, binding; format: functional
[6] = target: T3, 5-hydroxytryptamine receptor 1A; assay: Binding affinity towards 5-hydroxytryptamine 1A receptor using [3H]8-OH-DPAT as radioligand
[7] = target: T2, Sodium-dependent serotonin transporter; assay: Binding affinity towards Serotonin transporter labeled with [3H]paroxetine as radioligand
[8] = target: Sodium-dependent serotonin transporter (Rattus norvegicus) (UniProt P31652); assay: Inhibitory activity against Serotonin transporter labeled with [3H]-paroxetine as radioligand at 100 nM concentration
[9] = target: T3, 5-hydroxytryptamine receptor 1A; assay: Binding affinity towards 5-HT1A receptor using [3H]8-OH-DPAT as radioligand
[10] = target: Sodium-dependent serotonin transporter (Rattus norvegicus) (UniProt P31652); assay: Inhibitory activity against serotonin [5-HT] reuptake site labeled with [3H]paroxetine as radioligand at 100 nM concentration
[11] = target: T1, 5-hydroxytryptamine receptor 1A (Homo sapiens); assay: Inhibitory activity against 5-hydroxytryptamine 1A receptor using [3H]-8-OH-DPAT as radioligand at 100 nM concentration

Question: `Cc1cc2c(OC[C@@H](O)CN3CCC(c4cc5cc(F)ccc5s4)CC3)cccc2[nH]1` was tested. Which Emax [1] did it give?
Answer: 12.1%

Question: What about the pKi [2] of the same compound?
Answer: 8.28

Question: And the pKi [3]?
Answer: 8.12

Question: With `COc1ccc2c(C)c(C3CCN(C[C@H](O)COc4cccc5[nH]ccc45)CC3)sc2c1` as the compound, how does the inhibition [4] read?
Answer: < 50%

Question: What about the pKi [3] of the same compound?
Answer: 8.22

Question: Which results are given for `COc1cccc2cc(C3CCN(C[C@H](O)COc4cccc5[nH]ccc45)CC3)sc12`?
Answer: Emax [5]: 9.32%; pKi [6]: 8.21; pKi [7]: 7.03

Question: Which results are given for `Cc1cc2c(OC[C@@H](O)CN3CCC(c4cc5ccc(F)cc5s4)CC3)cccc2[nH]1`?
Answer: Emax [1]: 12.6%; pKi [2]: 7.95; pKi [3]: 7.81

Question: For `Cc1cc2c(OC[C@@H](O)CN3CCC(c4cc5c(F)cccc5s4)CC3)cccc2[nH]1`, which Emax [1] is on record?
Answer: 11.6%

Question: What about the pKi [2] of the same compound?
Answer: 7.47

Question: What about the pKi [3] of the same compound?
Answer: 7.85

Question: How did the inhibition [8] turn out when `CC(C)Oc1cccc2sc(C3CCN(C[C@H](O)COc4cccc5[nH]ccc45)CC3)cc12` was run?
Answer: < 50%

Question: What about the pKi [9] of the same compound?
Answer: 8.13

Question: How did the Emax [1] turn out when `Cc1cc(C)c2cc(C3CCN(C[C@H](O)COc4cccc5[nH]c(C)cc45)CC3)sc2c1` was run?
Answer: 13.4%

Question: And the pKi [2]?
Answer: 7.28

Question: What about the pKi [3] of the same compound?
Answer: 7.56

Question: With `Cc1c(C2CCN(C[C@H](O)COc3cccc4[nH]ccc34)CC2)sc2ccc(F)cc12` as the compound, how does the pKi [3] read?
Answer: 8.29

Question: And the inhibition [10]?
Answer: < 50%

Question: With `O[C@H](COc1cccc2[nH]ccc12)CN1CCC(c2cc3ccc(Cl)cc3s2)CC1` as the compound, how does the pKi [2] read?
Answer: 7.86

Question: And the pKi [3]?
Answer: 8.12

Question: What does the source list for `COc1ccc2cc(C3CCN(C[C@H](O)COc4cccc5[nH]ccc45)CC3)sc2c1`?
Answer: Emax [5]: 4.92%; pKi [6]: 8.50; pKi [7]: 7.16

Question: `O[C@H](COc1cccc2[nH]ccc12)CN1CCC(c2cc3c(Cl)cccc3s2)CC1` was tested. Which pKi [2] did it give?
Answer: 7.81

Question: What about the pKi [3] of the same compound?
Answer: 8.04

Question: How did the pKi [3] turn out when `Oc1ccc2cc(C3CCN(C[C@H](O)COc4cccc5[nH]ccc45)CC3)sc2c1` was run?
Answer: 8.51

Question: And the inhibition [10]?
Answer: < 50%

Question: What does the source list for `O[C@H](COc1cccc2[nH]ccc12)CN1CCC(c2cc3cc(Cl)ccc3s2)CC1`?
Answer: Emax [1]: 11%; pKi [2]: 6.98; pKi [3]: 8.14

Question: Which Emax [1] does the source give for `O[C@H](COc1cccc2[nH]ccc12)CN1CCC(c2cc3ccccc3s2)CC1` here?
Answer: 12.3%

Question: And the pKi [2]?
Answer: 7.78

Question: And the pKi [3]?
Answer: 8.43

Question: Which results are given for `COc1cccc2sc(C3CCN(C[C@H](O)COc4cccc5[nH]ccc45)CC3)cc12`?
Answer: Emax [1]: 7.47%; pKi [2]: 7.90

Question: With `Cc1c(C2CCN(C[C@H](O)COc3cccc4[nH]ccc34)CC2)sc2ccccc12` as the compound, how does the pKi [2] read?
Answer: 7.62

Question: What about the pKi [3] of the same compound?
Answer: 8.20

Question: What does the source list for `Cc1cc2c(OC[C@@H](O)CN3CCC(c4cc5c(C)cccc5s4)CC3)cccc2[nH]1`?
Answer: Emax [1]: 12.1%; pKi [2]: 7.76; pKi [3]: 7.98

Question: For `COc1cccc2sc(C3CCN(C[C@H](O)COc4cccc5[nH]c(C)cc45)CC3)cc12`, which Emax [1] is on record?
Answer: 9.05%

Question: And the pKi [2]?
Answer: 7.29

Question: And the pKi [3]?
Answer: 8.32

Question: How did the inhibition [8] turn out when `CC(C)Oc1ccc2cc(C3CCN(C[C@H](O)COc4cccc5[nH]ccc45)CC3)sc2c1` was run?
Answer: < 50%

Question: And the pKi [6]?
Answer: 7.70

Question: With `Cc1ccc2cc(C3CCN(C[C@H](O)COc4cccc5[nH]ccc45)CC3)sc2c1` as the compound, how does the Emax [1] read?
Answer: 13.8%

Question: What about the pKi [2] of the same compound?
Answer: 7.30

Question: What about the pKi [3] of the same compound?
Answer: 7.90

Question: With `COc1ccc2sc(C3CCN(C[C@H](O)COc4cccc5[nH]ccc45)CC3)cc2c1` as the compound, how does the inhibition [8] read?
Answer: < 50%

Question: And the pKi [9]?
Answer: 8.84

Question: How did the Emax [1] turn out when `Oc1cccc2cc(C3CCN(C[C@H](O)COc4cccc5[nH]ccc45)CC3)sc12` was run?
Answer: 12.5%

Question: What about the pKi [2] of the same compound?
Answer: 7.43

Question: And the pKi [3]?
Answer: 8.15

Question: Which results are given for `Cc1ccc2cc(C3CCN(C[C@H](O)COc4cccc5[nH]c(C)cc45)CC3)sc2c1`?
Answer: pKi [3]: 7.65; inhibition [10]: < 50%

Question: Which results are given for `Cc1cccc2sc(C3CCN(C[C@H](O)COc4cccc5[nH]ccc45)CC3)cc12`?
Answer: Emax [1]: 17%; pKi [2]: 8.43; pKi [3]: 8.33

Question: `Cc1cc(C)c2cc(C3CCN(C[C@H](O)COc4cccc5[nH]ccc45)CC3)sc2c1` was tested. Which inhibition [4] did it give?
Answer: < 50%

Question: What about the inhibition [11] of the same compound?
Answer: < 50%

Question: Which Emax [1] does the source give for `O[C@H](COc1cccc2[nH]ccc12)CN1CCC(c2cc3c(F)cccc3s2)CC1` here?
Answer: 11.2%

Question: What about the pKi [2] of the same compound?
Answer: 7.80

Question: What about the pKi [3] of the same compound?
Answer: 8.17

Question: Which Emax [1] does the source give for `O[C@H](COc1cccc2[nH]ccc12)CN1CCC(c2cc3cc(F)ccc3s2)CC1` here?
Answer: 13.2%

Question: What about the pKi [2] of the same compound?
Answer: 7.93

Question: What about the pKi [3] of the same compound?
Answer: 7.53

Question: How did the Emax [1] turn out when `O[C@H](COc1cccc2[nH]ccc12)CN1CCC(c2cc3ccc(F)cc3s2)CC1` was run?
Answer: 11.7%

Question: What about the pKi [2] of the same compound?
Answer: 8.70

Question: And the pKi [3]?
Answer: 8.03
